In ChEMBL document CHEMBL3414426, “Xanthone analogues as potent modulators of intestinal P-glycoprotein” (Eur J Med Chem, 2015):
One block for each compound: values may come before it. Active and inactive are the calls of the source. No cut-off for these calls is given here.

Key:
[1] = tested on: Mus musculus; assay: Toxicity in human A549 cells xenografted in BALB/c athymic nude male mouse assessed as maximum weight loss at 10 mg/kg, po in presence of 40 mg/kg, po PTX administered on day 1, 5, 9 and 13 post tumor implantation; type: organism-based; conditions: in vivo
[2] = tested on: A549; assay: Anticancer activity against human A549 cells xenografted in BALB/c athymic nude male mouse assessed as tumor growth inhibition rate at 5 mg/kg, po in presence of 40 mg/kg, po PTX administered on day 1, 5, 9 and 13 post tumor implantation; type: functional
[3] = Elimination half life in Sprague-Dawley rat at 15 mg/kg, po; type: ADME, organism-based; parameters: dose 15 mg/kg, route oral; conditions: in vivo, read-out: beta t1/2 (converted)
[4] = Cmax in Sprague-Dawley rat at 15 mg/kg, po; type: ADME, organism-based; parameters: dose 15 mg/kg, route oral; conditions: in vivo
[5] = tested on: A549; assay: Anticancer activity against human A549 cells xenografted in BALB/c athymic nude male mouse assessed as mouse survival rate at 5 mg/kg, po in presence of 40 mg/kg, po PTX administered on day 1, 5, 9 and 13 post tumor implantation; type: functional
[6] = tested on: NCI/ADR-RES; assay: Effect on P-glycoprotein expression in human MCF7/ADR cells at 100 uM after 2 hrs by Western blot analysis; type: functional, cell-based
[7] = tested on: A549; assay: Anticancer activity against human A549 cells xenografted in BALB/c athymic nude male mouse assessed as mouse tumor growth inhibition rate at 10 mg/kg, po in presence of 40 mg/kg, po PTX administered on day 1, 5, 9 and 13 post tumor implantation; type: functional
[8] = AUC (0 to t) in Sprague-Dawley rat at 15 mg/kg, po; type: ADME, organism-based; parameters: dose 15 mg/kg, route oral; conditions: plasma
[9] = tested on: Rattus norvegicus; assay: Absolute bioavailability in Sprague-Dawley rat at 5 mg/kg, iv; type: ADME, organism-based; conditions: in vivo
[10] = Initial drug concentration in Sprague-Dawley rat blood at 5 mg/kg, iv; type: ADME, organism-based; parameters: dose 5 mg/kg, route intravenous
[11] = AUC (0 to t) in Sprague-Dawley rat at 5 mg/kg, iv; type: ADME, organism-based; parameters: dose 5 mg/kg, route intravenous; conditions: plasma
[12] = biological target: P-glycoprotein (ABCB1) (Homo sapiens, UniProt P08183); assay: (§1) Inhibition of P-glycoprotein in human MCF7/ADR cells assessed as reduction in [3H]-DNM efflux ratio at 100 uM after 1 hr relative untreated control; type: cell-based, NCI/ADR-RES; conditions: MCF7/ADR cells (NCI/ADR-RES), probe [3H]-DNM, read-out: Activity
P-glycoprotein (ABCB1), sequence (P08183 whole entry): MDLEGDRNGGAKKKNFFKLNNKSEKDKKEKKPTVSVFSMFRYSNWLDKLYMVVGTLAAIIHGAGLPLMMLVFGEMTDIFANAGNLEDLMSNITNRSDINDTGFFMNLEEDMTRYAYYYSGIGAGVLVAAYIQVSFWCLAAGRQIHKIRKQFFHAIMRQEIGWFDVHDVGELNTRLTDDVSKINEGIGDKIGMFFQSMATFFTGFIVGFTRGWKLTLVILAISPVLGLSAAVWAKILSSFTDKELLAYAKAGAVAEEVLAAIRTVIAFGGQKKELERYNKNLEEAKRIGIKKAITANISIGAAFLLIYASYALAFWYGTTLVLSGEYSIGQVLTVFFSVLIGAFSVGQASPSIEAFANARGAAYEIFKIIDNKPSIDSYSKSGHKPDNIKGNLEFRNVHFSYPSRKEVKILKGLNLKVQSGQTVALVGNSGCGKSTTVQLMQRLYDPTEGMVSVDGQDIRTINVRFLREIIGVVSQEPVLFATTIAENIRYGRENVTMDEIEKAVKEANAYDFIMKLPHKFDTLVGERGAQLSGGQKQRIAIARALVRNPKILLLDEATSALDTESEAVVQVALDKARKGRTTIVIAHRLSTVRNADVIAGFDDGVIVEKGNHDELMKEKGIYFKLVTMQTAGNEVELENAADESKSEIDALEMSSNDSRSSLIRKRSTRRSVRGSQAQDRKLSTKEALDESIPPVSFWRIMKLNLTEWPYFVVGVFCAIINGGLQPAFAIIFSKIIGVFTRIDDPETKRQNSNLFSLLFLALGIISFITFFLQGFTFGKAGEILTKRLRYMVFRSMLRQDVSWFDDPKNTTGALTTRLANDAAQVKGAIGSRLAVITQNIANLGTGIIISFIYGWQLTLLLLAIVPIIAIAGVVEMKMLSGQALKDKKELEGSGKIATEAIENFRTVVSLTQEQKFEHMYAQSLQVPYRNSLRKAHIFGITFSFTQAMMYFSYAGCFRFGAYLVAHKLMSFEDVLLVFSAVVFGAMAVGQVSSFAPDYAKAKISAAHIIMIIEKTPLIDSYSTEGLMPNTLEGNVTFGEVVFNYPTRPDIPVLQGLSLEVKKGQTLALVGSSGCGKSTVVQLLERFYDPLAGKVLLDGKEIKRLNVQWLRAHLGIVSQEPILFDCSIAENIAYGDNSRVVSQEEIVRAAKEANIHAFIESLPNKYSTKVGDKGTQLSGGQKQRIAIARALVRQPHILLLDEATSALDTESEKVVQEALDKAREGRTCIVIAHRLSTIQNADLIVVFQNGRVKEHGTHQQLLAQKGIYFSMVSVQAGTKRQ

[13] = biological target: T1, ATP-dependent translocase ABCB1 (Homo sapiens, UniProt P08183); assay: Inhibition of P-glycoprotein in human MCF7/ADR cells assessed as daunomycin IC50 at 100 uM after 2 hrs; type: cell-based; conditions: nci/adr-res
T1 sequence (P08183 whole entry): as above

[14] = biological target: T1, ATP-dependent translocase ABCB1; assay: Inhibition of P-glycoprotein in human MCF7/ADR cells assessed as increase in [3H]-DNM accumulation at 100 uM after 2 hrs relative untreated control; type: cell-based; parameters: Activity: scale not given: the % may be the effect or the level left; conditions: nci/adr-res
[15] = Tmax in Sprague-Dawley rat at 15 mg/kg, po; type: ADME, organism-based; parameters: dose 15 mg/kg, route oral; conditions: in vivo
[16] = Elimination rate constant in Sprague-Dawley rat at 5 mg/kg, iv; type: ADME, organism-based; parameters: dose 5 mg/kg, route intravenous; conditions: in vivo
[17] = tested on: A549; assay: Anticancer activity against human A549 cells xenografted in BALB/c athymic nude male mouse assessed as mouse survival rate at 10 mg/kg, po in presence of 40 mg/kg, po PTX administered on day 1, 5, 9 and 13 post tumor implantation; type: functional
[18] = Elimination rate constant in Sprague-Dawley rat at 15 mg/kg, po; type: ADME, organism-based; parameters: dose 15 mg/kg, route oral; conditions: in vivo
[19] = Absolute bioavailability in Sprague-Dawley rat at 15 mg/kg, po; type: ADME, organism-based; conditions: in vivo
[20] = Elimination half life in Sprague-Dawley rat at 5 mg/kg, iv; type: ADME, organism-based; parameters: dose 5 mg/kg, route intravenous; conditions: in vivo, read-out: beta t1/2 (converted)
[21] = tested on: Mus musculus; assay: Toxicity in human A549 cells xenografted in BALB/c athymic nude male mouse assessed as maximum weight loss at 5 mg/kg, po in presence of 40 mg/kg, po PTX administered on day 1, 5, 9 and 13 post tumor implantation; type: organism-based; conditions: in vivo
[22] = biological target: T1, ATP-dependent translocase ABCB1; assay: as §1; type: cell-based, NCI/ADR-RES; conditions: nci/adr-res, 1 h, 100 µM

Compound: O=c1c2ccccc2sc2cc(OCC(O)CCl)cc(O)c12 (configuration not stated)
- Activity [1]: 3.52%
- TGI [2]: 61.6%
- half-life [3]: 23.4 min
- Cmax [4]: 49 ng/mL
- Survival [5]: 80%
- Activity [6]: inactive
- TGI [7]: 52.6%
- AUC(0-t) [8]: 23 ng·h/mL
- F [9]: 100%
- C0 [10]: 44300 ng/mL
- AUC(0-t) [11]: 1250 ng·h/mL
- inhibition at 1 h, 100 µM [12]: 70.4%
- inhibition (INH) [13]: Active
- Activity [14]: 707%
- Tmax [15]: 12.6 min
- k el [16]: 0.000569 s⁻¹
- Survival [17]: 100%
- k el [18]: 0.000539 s⁻¹
- bioavailability [19]: 0.6%
- half-life [20]: 21 min
- Activity [21]: 6.19%

- inhibition (INH) [13]: Active
- Activity [14]: 319%
Compound: COc1ccc(CCN(C)CCCC(C#N)(c2ccc(OC)c(OC)c2)C(C)C)cc1OC (configuration not stated) [VERAPAMIL]

Compound: COc1cccc2c(=O)c3c(OCC4CS4)cc(OCC4CS4)cc3oc12 (configuration not stated)
- inhibition (INH) [13]: Active

- inhibition (INH) [13]: Active
Compound: O=c1c2ccccc2oc2cc(OCC(O)CCl)cc(O)c12 (configuration not stated)

- inhibition (INH) [22]: Not Active
- inhibition (INH) [13]: Active
- inhibition (INH) [14]: Not Active
Compound: COc1cc(OCC(O)CCl)cc2oc3ccccc3c(=O)c12 (configuration not stated)
- Activity [6]: inactive

Compound: O=c1c2ccccc2oc2cc(OCC3CS3)cc(OCC3CS3)c12 (configuration not stated)
- inhibition (INH) [13]: Active

Compound: COc1cccc2c(=O)c3c(O)cc(OCC(S)CCl)cc3oc12 (configuration not stated)
- inhibition (INH) [13]: Active

Compound: O=c1c2ccccc2sc2cc(OCC3CS3)cc(O)c12 (configuration not stated)
- inhibition (INH) [13]: Active

Compound: COc1cccc2c(=O)c3c(O)cc(OCC4CS4)cc3oc12 (configuration not stated)
- inhibition (INH) [13]: Active

- inhibition (INH) [13]: Active
Compound: COc1cccc2c(=O)c3c(O)cc(OCC(O)CO)cc3oc12 (configuration not stated)

- inhibition (INH) [13]: Active
Compound: COc1cccc2c(=O)c3c(O)cc(OCC(O)CCl)cc3oc12 (configuration not stated)

Compound: O=c1c2ccccc2sc2cc(OCC(S)CCl)cc(O)c12 (configuration not stated)
- inhibition (INH) [13]: Active

- inhibition (INH) [13]: Active
Compound: O=c1c2ccccc2oc2cc(OCC(O)CO)cc(O)c12 (configuration not stated)
